Source: patent US20240041042A1, “1-(PYRIDYL)-5-AZINYLPYRAZOLE DERIVATIVES, AND THEIR USE FOR CONTROL OF UNDESIRED PLANT GROWTH” (Bayer Aktiengesellschaft, priority 2020, published 2024)
Read-outs that look alike come from different tables or passages of the source.

Columns and labels:
Format in all cases: in vivo
[1] = system: Polygonum convolvulus (POLCO); assay: Post-emergence herbicidal action against POLCO
Outline: (§1)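 Rates were 320 g/ha or below, applied as aqueous WP/EC spray with 0.5% additive (600 l/ha) onto one-leaf-stage plants. About 3 weeks later in the greenhouse, damage was scored visually against untreated plants on a 0–100% scale, where 100% means plants died.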

[2] = system: Abutilon theophrasti (ABUTH); assay: Post-emergence herbicidal action against ABUTH; conditions: visual rating about 3 weeks after treatment vs untreated controls (100% = plants have died, 0% = like control plants)
Outline: as §1

Viola tricolor (VIOTR) = assay: Post-emergence herbicidal action against VIOTR
Outline: as §1

[3] = system: Alopecurus myosuroides (ALOMY); assay: Post-emergence herbicidal action against ALOMY; conditions: visual rating about 3 weeks after treatment vs untreated controls (100% = plants have died, 0% = like control plants)
Outline: as §1

[4] = system: Digitaria sanguinalis (DIGSA); assay: Post-emergence herbicidal action against DIGSA; conditions: visual rating about 3 weeks after treatment
Procedure: Seeds of monocotyledonous and dicotyledonous weeds and crop plants are placed in sandy loam in plastic or organic planting pots, covered with soil and cultivated in a greenhouse under controlled growth conditions. 2 to 3 weeks after sowing, the test plants are treated at the one-leaf stage. The compounds of the invention, formulated in the form of wettable powders (WP) or as emulsion concentrates (EC), are then sprayed onto the green parts of the plants as aqueous suspension or emulsion with addition of 0.5% additive at a water application rate of 600 l/ha (converted). After the test plants have been kept in the greenhouse under optimum growth conditions for about 3 weeks, the activity of the preparations is rated visually in comparison to untreated controls. For example, 100% activity=the plants have died, 0% activity=like control plants.
Tables B1 to B13 below show the effects of selected compounds of the general formula (I) according to Table 1 on various harmful plants and at an application rate corresponding to 320 g/ha or lower, which were obtained by the experimental procedure mentioned above. The appendices “a”, “b” and “c” give differentiation by dosage used with otherwise the same harmful plants tested.

Setaria viridis (SETVI) = assay: Post-emergence herbicidal action against SETVI
Outline: as §1

Oryza sativa (ORYSA) = conditions: crop plant compatibility
Outline: (§2)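 Foliar application at the one-leaf stage: WP/EC formulation, 0.5% additive, 600 l/ha water. Greenhouse-grown in sandy loam. Endpoint is visual % injury relative to untreated controls at about 3 weeks.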

[5] = system: Matricaria inodora (MATIN); assay: Post-emergence herbicidal action against MATIN
Outline: as §1

[6] = system: Pharbitis purpurea (PHBPU); assay: Post-emergence herbicidal action against PHBPU
Outline: as §1

[7] = system: Amaranthus retroflexus (AMARE); assay: Post-emergence herbicidal action against AMARE
Outline: as §1

Lolium rigidum (LOLRI) = assay: Post-emergence herbicidal action against LOLRI
Outline: as §1

Avena fatua (AVEFA) = assay: Post-emergence herbicidal action against AVEFA; conditions: visual rating about 3 weeks after treatment
Outline: as §1

[8] = system: Verconica persica (VERPE); assay: Post-emergence herbicidal action against VERPE
Outline: as §1

[9] = system: Echinochloa crus-galli (ECHCG); assay: Post-emergence herbicidal action against ECHCG
Outline: as §1

Zea mays (ZEAMX) = conditions: 20 g/ha, ZEAMX, effect in comparison to untreated controls
Outline: as §2

[10] = 20 g/ha, effect vs untreated controls
[11] = 80 g/ha, visual rating about 3 weeks after treatment vs untreated controls (100% = plants have died, 0% = like control plants)
[12] = 320 g/ha, visual rating about 3 weeks after treatment

SMILES	Post-emergence action against POLCO in % ([1]; dosage 320 g/ha)	Post-emergence action against ABUTH in % ([2]; 320 g/ha)	Post-emergence action against VIOTR in % (Viola tricolor (VIOTR); 80 g/ha)	Post-emergence action against VIOTR in % (Viola tricolor (VIOTR); 320 g/ha)	Post-emergence action against ALOMY in % ([3]; 80 g/ha)	Post-emergence action against ALOMY in % ([3]; 320 g/ha)	Post-emergence action against DIGSA in % ([4]; 320 g/ha)	Post-emergence action against SETVI in % (Setaria viridis (SETVI); dosage 80 g/ha)	Post-emergence action against SETVI in % (Setaria viridis (SETVI); dosage 320 g/ha)	Post-emergence action against ORYSA in % (Oryza sativa (ORYSA); [10])	Post-emergence action against MATIN in % ([5]; dosage 320 g/ha)	Post-emergence action against PHBPU in % ([6]; dosage 320 g/ha)	Post-emergence action against LOLRI in % (Lolium rigidum (LOLRI); dosage 80 g/ha)	Post-emergence action against LOLRI in % (Lolium rigidum (LOLRI); dosage 320 g/ha)	Post-emergence action against AVEFA in % (Avena fatua (AVEFA); 80 g/ha)	Post-emergence action against AVEFA in % (Avena fatua (AVEFA); 320 g/ha)	Post-emergence action against VERPE in % ([8]; 320 g/ha, VERPE)	Post-emergence action against VERPE in % ([8]; dosage 80 g/ha)	Post-emergence action against ECHCG in % ([9]; dosage 80 g/ha)	Post-emergence action against ECHCG in % ([9]; dosage 320 g/ha)	other results
COC(=O)[C@@H](C)Oc1nn(-c2ncccc2F)c(-c2cncc(F)c2)c1I [Example I-197]	90%	90%	90%	90%	90%	90%	90%	90%	90%	0%	90%	100%	90%	90%	90%	90%	90%	90%	90%	90%	Post-emergence action against POLCO in % ([1]; dosage 80 g/ha): 90%; Post-emergence action against ABUTH in % ([2]; 80 g/ha): 90%; Post-emergence action against DIGSA in % ([4]; 80 g/ha): 90%; Post-emergence action against ORYSA in % (Oryza sativa (ORYSA); 80 g/ha, effect in comparison to untreated controls): 10%; Post-emergence action against MATIN in % ([5]; dosage 80 g/ha): 80%; Post-emergence action against PHBPU in % ([6]; dosage 80 g/ha): 90%; Post-emergence action against AMARE in % [7, 11]: 90%; Post-emergence action against AMARE in % [7, 12]: 90%
COC(=O)[C@@H](C)Oc1nn(-c2ccccn2)c(-c2ccc(F)nc2)c1Br [Example I-252]	80%			80%	80%	90%	90%	80%	80%	10%	80%	90%	80%	80%	80%	80%	80%	80%	80%	90%	Post-emergence action against DIGSA in % ([4]; 80 g/ha): 90%; Post-emergence action against ZEAMX in % (crop plant compatibility) (Zea mays (ZEAMX)): 10%
CCOC(=O)[C@@H](C)Oc1nn(-c2nc(F)ccc2F)c(-c2cncc(F)c2)c1C1CC1 [Example I-177]	90%	90%	100%	100%		100%	90%	90%	90%	0%	90%	90%	100%	100%	90%	90%	100%	100%	100%	100%	Post-emergence action against POLCO in % ([1]; dosage 80 g/ha): 90%; Post-emergence action against ABUTH in % ([2]; 80 g/ha): 90%; Post-emergence action against MATIN in % ([5]; dosage 80 g/ha): 90%; Post-emergence action against PHBPU in % ([6]; dosage 80 g/ha): 90%; Post-emergence action against AMARE in % [7, 11]: 90%; Post-emergence action against AMARE in % [7, 12]: 90%
CCOC(=O)[C@@H](C)Oc1nn(-c2ncccc2F)c(-c2cncc(F)c2)c1C1CC1 [Example I-172]	80%	80%	80%	90%	90%	90%	90%	80%	80%	20%	90%	90%	90%	90%	80%	90%	90%	80%	80%	90%	Post-emergence action against DIGSA in % ([4]; 80 g/ha): 80%; Post-emergence action against MATIN in % ([5]; dosage 80 g/ha): 90%; Post-emergence action against PHBPU in % ([6]; dosage 80 g/ha): 80%; Post-emergence action against AMARE in % [7, 12]: 80%
